# Test results: patent US20160115540A1, “PRODRUGS AND DRUGS” (Biogen MA Inc., priority 2013, published 2016)
# Structures can show the parent of a compound that is named as a salt.
# Tested on: brain
# Assay: Transcriptional profiling, multi-dosing regimen, naïve mice: brain
# Type: in vivo
# Details: for FC: BRAIN_HEMI, 100DMF-vs-Veh; for FC, Depp (1433836_PM_a_at): BrainHemi, multi-dosing; for Number of differentially expressed genes identified: Brain Hemi: Table 13: Naïve, Single Dose (so in the source), 12 h after last dosing
# Description: In vivo, DMF is rapidly metabolized to monomethyl fumarate (MMF). […] Animals were exposed to CO2 and whole blood collected via cardiac puncture. Two 100 μl aliquots of whole blood were collected in 1.5 mL microcentrifuge tubes and snap frozen in liquid nitrogen. Peripheral (liver, spleen, kidney and jejunum) and CNS brain (cerebellum, hippocampus, striatum and cortex) tissues were harvested and snap frozen in liquid nitrogen, with special care taken to collect tissues of similar size and from the same location. All samples were stored at -80° C. until RNA extraction was conducted. For RNA preparation, frozen tissues were placed in 2 mL RNAse-free 96-well blocks with 1.5 mL QIAzol Lysis Reagent (QIAgen) and a 3.2 mm stainless steel bead (BioSpec Products, Bartlesville, Okla.). Tissues were disrupted for four cycles of 45 seconds in a Mini-Beadbeater (Biospec Products). RNA was extracted in chloroform and the aqueous phase was mixed with an equal volume of 70% ethanol. Extracted RNA was applied to RNeasy 96 plates and purified by the spin method according to the manufacturer's protocol (RNeasy 96 Universal Tissue Protocol, QIAgen, Hilden Germany). […] Two micrograms of biotin labeled […] probe were hybridized to Affymetrix GeneChip Affymetrix HT_MG-430_PM plate arrays with modified conditions as described in […] et al. Washing and staining of the hybridized arrays were completed as described in the GeneChip Expression analysis technical manual for HT plate arrays using the Genechip® Array Station (Affymetrix, Santa Clara, Calif.) with modifications as described in […] et al. The processed GeneChip® plate arrays were scanned using GeneTitan scanner (Affymetrix, Santa Clara, Calif.). Affymetrix scans were subject to quality control (QC) measures. These tests included a visual inspection of the distribution of raw signal intensities and an assessment of RNA degradation, relative log expression (RLE), and normalized unsealed standard error (NUSE). All sample scans that passed these QC metrics were included in the analysis. All CEL files were subjected to GC-content-based Robust Multi-array Average (GCRMA) normalization (version 2.20.0) (Irizarry R A, et al. Nucleic Acids Res 2003; 31:e15; Li C, et al. […] Stat Appl Genet Mol Biol 2004; 3:Article3). […] Springer Science+Business Media 2005). Changes in gene expression were studied by applying a linear modeling approach to fit gene expression levels according to the defined groups of samples (e.g. DMF-, MMF-, and Vehicle-treated animals) and Bayesian posterior error analysis as implemented by Smyth (Smyth G K. Stat Appl Genet Mol Biol 2004; 3:Article3). The comparisons considered included: DMF-vs-MMF, DMF-vs-Vehicle, and MMF-vs-Vehicle. […] Very few DEGs are observed in blood and tissues derived from the central nervous system (brain, cerebellum, cortex, striatum, and spinal cord).
smiles,measurement,setting,value
"COC(=O)/C=C/C(=O)OC [DMF, dimethyl fumarate]",FC,2310079F09Rik 1433201_PM_at,2.00
same,FC,8430408G22Rik 1433836_PM_a_at,1.77
same,"FC, Depp (1433836_PM_a_at)",DMF-vs-MMF,1.78
same,"FC, Depp (1433836_PM_a_at)",DMF-vs-Vehicle,1.77
same,FC,Pvrl3 1457257_PM_x_at,−1.69
same,Number of differentially expressed genes identified: Brain Hemi,100 mpk DMF-vs-90 mpk MMF,8
same,Number of differentially expressed genes identified: Brain Hemi,100 mpk DMF-vs-Vehicle,3
same,DEPP gene induction (mRNA),"brain, multi-dosing regimen, naïve mice",robustly induced
